Key:
[1] = system: cutaneous pain induced by moderate acidification; test: Nociceptive behaviour in rats after subcutaneous injection of moderately acidic solutions; type: in vivo, rat
Protocol: Adult (7-8 weeks' old) male Wistar rats (Charles River, France) were placed in plastic cages with a nyctohemeral period of 12 h (with light between 8 a.m. and 8 p.m.) and with free access to food and water. The rats were left to acclimatize for at least one week before the experiments. For the behavioural experiments, the rats were placed in a transparent observation chamber where they were acclimatized for 20-30 minutes. They were subsequently immobilised while 20 μl of saline solution (0.9% or 2% of NaCl+20 mM of HEPES, […] or 60 nM of PcTx1 toxin), was administered subcutaneously to the dorsal side of the right hind paw using a 30G needle connected to a 100 μl Hamilton syringe. The nociceptive behaviour (i.e. the number of hind leg quiverings) was recorded over a 5-minute period, starting immediately after the injection ([ref. 59]).

[2] = system: thermal hyperalgesia induced by CFA; test: Inflammation-induced (CFA) thermal hyperalgesia in rats, hotplate at 50° C.; type: in vivo, rat
Protocol: Sensitivity to heat of adult male Wistar rats (Charles River, France) was tested by measuring the time taken by the animal to retract one of its hind paws when placed on a hotplate at 50° C. (Bioseb, France), before and after induction of inflammation by subcutaneous injection of a solution of Freund's complete adjuvant (CFA, Sigma-Aldrich, France). The rats were acclimatised to the experimentation room for at least 30 minutes and each measurement was performed in duplicate. An initial measurement was performed before induction of inflammation. The rats were subsequently anaesthetised (isofluorane) while 150 μl of CFA diluted 1:1 with a saline solution (0.9% NaCl) containing either toxins (PcTx1 or APETx2, 120 nM and 20 μM, respectively) or the vehicle was injected (26G needle mounted on a 1 ml syringe) subcutaneously into the plantar side of one of the hind paws. The time taken by the animal to lift the injected hind paw was subsequently measured at 50° C., 2, 4 and 24 hours after the injection of CFA.
(§1) ASIC3 channel-specific iRNA (no. 1121; CTACACGCTATGCCAAGGA, SEQ ID NO: 1) and its control (no. 1121S; GCTCACACTACGCAGAGAT, SEQ ID NO: 2) were designed in the laboratory and were synthesised by MWG Biotech Company (Germany). The ASIC3-specific iRNA was validated by quantification of the messenger RNA levels by quantitative RT-PCR for each ASIC channel and for the TRPV1 channel, following intrathecal injections into the lumbar region of the spinal cord of rats, at a rate of one injection per day for 3 consecutive days, before the animal was sacrificed. The same procedure was followed before induction of inflammation by CFA. Each injection was 10 μl in volume, containing 2 μg of iRNA mixed with the transfection agent i-Fect (Neuromics) at a ratio of 1 to 4.

[3] = system: ASIC type current of cutaneous neurons of the spinal ganglia; test: Whole cell patch clamp of native ASIC currents in cutaneous neurons of the spinal ganglia; type: cell-based, rat
Protocol: The neurons of the dorsal root ganglion (spinal ganglia or DRG) innervating the skin were labelled by subcutaneous injections of 5×1 μl of Dil fluorescent dye (5% DMSO, Molecular Probes) in the dorsal side of the rats' hind paws. The dye was injected two weeks before the rats were sacrificed in order to prepare a primary culture of dorsal root ganglion.
The lumbar dorsal root ganglia L3-L6 of Wistar rats (8-11 weeks) were dissected bilaterally and separated enzymatically with 0.1% collagenase. The cells were subsequently plated on 35 mm Petri dishes covered with collagen and cultured at 37° C. (95% air/5% CO2) in DMEM medium containing 5% of foetal calf serum. The electrophysiological experiments were performed 1 to 8 days after seeding.
(§2) The whole cell configuration of the patch clamp method was used ([ref. 48]) in order to measure the membrane currents (imposed voltage) or the membrane potentials (imposed current). The recordings were performed at ambient temperature using an RK-400 amplifier (Bio-Logic Science Instruments) with a 3 kHz low-pass filter (Krohn-Hite). The data were sampled at 10 kHz, digitised using a Digidata 1322A A-D/D-A converter (Axon Instruments) and recorded on a hard disk using pClamp software (version 9.2.0.11, Axon Instruments). The recording probes (1-4 MOhms) contained (in mM): 135 KCl, 2.5 Na2-ATP, 2 MgCl2, 2.1 CaCl2, 5 EGTA, 10 HEPES (pH 7.25 with KOH). Various different buffers and drugs of interest were added to the transfected cells considered individually using an internally developed microinfusion system controlled by microelectrovalves (Sirai, Italy) allowing rapid changes of solution. The control bath solution contained (in mM): 145 NaCl, 5 KCl, 2 MgCl2, 2 CaCl2, 10 HEPES (pH 7.4 with NaOH). The MES medium was used instead of the HEPES medium in order to buffer the solution at a pH ranging from 6 to 5, and the ASIC currents were induced by rapid changes of a control solution at pH 7.4 to an acid test solution using the microinfusion system. For the experiments conducted on the DRG neurons, glucose (10 mM) was added to the control bath solution. Hypertonic conditions were obtained by adding mannitol or sucrose to the external bath solutions, as indicated in the text.

[4] = molecular target: T1, ASIC3 (rat clone) in F-11 cells (Rattus norvegicus, UniProt O35240); test: Whole cell patch clamp of recombinant ASIC3 in transfected F-11 cells; type: cell-based
T1 construct: expressed in transfected cells; host or cells: F-11 cells, vector pCI-ASIC3r co-transfected with pIRES2-EGFP
T1 sequence (O35240 1-533): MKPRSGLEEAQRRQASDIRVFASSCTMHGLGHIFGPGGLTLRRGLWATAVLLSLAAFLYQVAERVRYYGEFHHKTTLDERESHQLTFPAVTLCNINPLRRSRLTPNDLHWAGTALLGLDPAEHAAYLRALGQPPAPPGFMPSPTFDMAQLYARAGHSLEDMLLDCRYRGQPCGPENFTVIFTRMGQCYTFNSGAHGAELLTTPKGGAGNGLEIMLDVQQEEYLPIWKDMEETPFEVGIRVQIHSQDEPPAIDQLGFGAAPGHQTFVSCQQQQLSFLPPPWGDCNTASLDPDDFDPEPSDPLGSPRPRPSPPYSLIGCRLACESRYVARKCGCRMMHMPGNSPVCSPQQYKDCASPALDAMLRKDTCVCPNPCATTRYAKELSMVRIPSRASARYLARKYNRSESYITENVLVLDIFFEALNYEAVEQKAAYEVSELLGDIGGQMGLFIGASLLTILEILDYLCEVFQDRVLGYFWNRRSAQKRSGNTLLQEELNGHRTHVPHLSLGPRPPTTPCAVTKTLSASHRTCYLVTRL
Protocol: (§3) F-11 cells (refs. 44, 45, 46, 47]) were cultured in 5% of CO2 at a density of 50,000 cells per 35 mm Petri dish. The culture medium contained HAM F-12 medium (Invitrogen) supplemented with 15% foetal bovine serum (ICN Biomedicals), 1×HAT (sodium hypoxanthine, aminopterine and thymidine), 200 μg/ml of allo-4-hydroxy-L-proline (Sigma-Aldrich) and 1% antibiotics. One day after seeding, the cells were transfected with ASIC1a or ASIC3 DNAc (rat clones) using Lipofectamine™ (Invitrogen) according to the manufacturer's instructions using the vectors pCI-ASIC1ar+pIRES2-EGFP (ratio 1:2) or pCI-ASIC3r+pIRES2-EGFP (ratio 1:10) ([ref. 36]), quoted above). For the experiments concerning the human ASIC3 clone (refer to experiments on the effects of the APETx2 toxin on the human form of the ASIC3 channel), the cells were transfected with the DNAc of human ASIC3 using the transfection agent JetPEI (Polypus Transfection) according to the manufacturer's instructions with the aid of the vector pASIC3h-IRES-EGFP. The cells were used for the patch clamp experiments (an electrophysiological method for recording ionic currents travelling through cell membranes) 2 to 4 days after transfection.
as §2

[5] = molecular target: T2, ASIC1a (rat clone) in F-11 cells (Rattus norvegicus, UniProt P55926); test: Whole cell patch clamp of recombinant ASIC1a in transfected F-11 cells; type: cell-based
T2 construct: expressed in transfected cells; host or cells: F-11 cells, vector pCI-ASIC1ar co-transfected with pIRES2-EGFP
T2 sequence (P55926 1-526): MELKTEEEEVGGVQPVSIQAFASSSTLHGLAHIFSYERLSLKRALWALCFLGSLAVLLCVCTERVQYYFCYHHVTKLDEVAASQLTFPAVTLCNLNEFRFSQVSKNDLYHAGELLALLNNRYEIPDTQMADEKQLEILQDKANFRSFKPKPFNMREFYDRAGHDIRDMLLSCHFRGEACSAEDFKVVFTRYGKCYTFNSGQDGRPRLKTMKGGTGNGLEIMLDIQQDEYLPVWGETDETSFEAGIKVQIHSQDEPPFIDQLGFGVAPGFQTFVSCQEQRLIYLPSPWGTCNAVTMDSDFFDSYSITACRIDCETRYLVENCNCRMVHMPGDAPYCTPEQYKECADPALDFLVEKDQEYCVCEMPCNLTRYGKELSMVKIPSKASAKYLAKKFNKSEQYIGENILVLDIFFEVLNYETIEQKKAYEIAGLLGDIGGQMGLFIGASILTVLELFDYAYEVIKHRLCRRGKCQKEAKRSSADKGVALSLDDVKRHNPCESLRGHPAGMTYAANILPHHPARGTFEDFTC
Protocol: as §3
The whole cell configuration of the patch clamp method was used ([ref. 48]) in order to measure the membrane currents (imposed voltage) or the membrane potentials (imposed current). The recordings were performed at ambient temperature using an RK-400 amplifier (Bio-Logic Science Instruments) with a 3 kHz low-pass filter (Krohn-Hite). The data were sampled at 10 kHz, digitised using a Digidata 1322A A-D/D-A converter (Axon Instruments) and recorded on a hard disk using pClamp software (version 9.2.0.11, Axon Instruments). The recording probes (1-4 MOhms) contained (in mM): 135 KCl, 2.5 Na2-ATP, 2 MgCl2, 2.1 CaCl2, 5 EGTA, 10 HEPES (pH 7.25 with KOH). Various different buffers and drugs of interest were added to the transfected cells considered individually using an internally developed microinfusion system controlled by microelectrovalves (Sirai, Italy) allowing rapid changes of solution. […]

[6] = system: ASIC3 messenger RNA; test: Quantitative RT-PCR of channel messenger RNA levels in spinal ganglia after intrathecal iRNA; type: in vivo, rat; conditions: 2 μg per injection, one per day for 3 days, other ASIC and TRPV1 channels not reduced
Text: as §1

## PcTx1: animal peptide toxin, selective inhibitor of the homomer channels ASIC1a (EDCIPKWKGCVNRHGDCCEGLECWKRRRSFEVCVPKTPKT)
[1]; pH 6.9 + 2% NaCl + AA, 10 μM APETx2 or 60 nM PcTx1 in injected solution, FIG. 5A
  behaviour in response to acid pain with inflammatory signals: devoid of any significant effect
[2]; toxin concomitantly injected with CFA (APETx2 20 μM, PcTx1 120 nM), four hours after CFA
  development of thermal hyperalgesia: devoid of any significant effect
[3]; in 4.7% (2/43) of neurons, ASIC1a homomer current
  inhibition by the toxin of the ASIC type current induced by pH 6.6: > 90%
[3]; in 23.3% (10/43) of neurons, ASIC3 type currents
  inhibition by the toxin of the ASIC type current induced by pH 6.6: < 10%

## CCCCC/C=C\C/C=C\C/C=C\C/C=C\CCCC(=O)O [arachidonic acid]
[1]; co-injected 2% NaCl (~600 mosmol.kg^−1) and 10 mM AA at pH 6.9, subcutaneous, hind paw, 5-minute period, n=25, versus 11.1±2.54 at pH 6.9 alone
  quivering score: 20.42±2.53
[4]; FIG. 4D
  non-inactivating ASIC3 window current: markedly increased
[4]; activated by pH 6.6, n=7, P=0.45
  increase of the ASIC3 current: 40±22%
[4]; activated by pH 7.0, n=9
  increase of the ASIC3 current: 493±84%
[4]; activated by pH 7.2, n=23
  increase of the ASIC3 current: 547±103%
[3]; FIG. 2C
  excitability of the cutaneous neurons (triggering of the action potential): increased excitability
[3]; pH 7.0, n=6, P=0.06
  increase of the ASIC current induced by native pH 7.0: 172±65%
[5]; pH 6.6, n=2
  increase of the ASIC1a current: 21±15%
[5]; pH 7.0, n=5, P=0.06
  increase of the ASIC1a current: 183±54%
[5]; pH 7.2
  effect on ASIC1a current: does not have any effect

## OC[C@@H](O)[C@@H](O)[C@H](O)[C@H](O)CO [mannitol]
[4]; 600 mosmol.kg^−1 with mannitol, activated by pH 7.2, n=20
  increase of the ASIC3 current by hyperosmolarity: 148±20%

## ASIC3 channel-specific iRNA: interfering RNA directed against ASIC3 messenger RNA, CTACACGCTATGCCAAGGA, SEQ ID NO: 1 (listed as DNA, chemistry not given here)
[6]
  expression of the ASIC3 channels in the sensory neurons: marked and exclusive reduction
[2]; intrathecal iRNA during the 3 days preceding CFA, versus random sequence control iRNA
  development of inflammatory thermal hyperalgesia: do not develop any inflammatory thermal hyperalgesia

Reference: patent US8357659B2, “Method of treating pain or itching with APETx2 peptide toxin” (priority 2008, dated 2013)
